Test results from patent US20060216346A1, “Dosage form containing (s)-pantoprazole as active ingredient” (priority 2003, published 2006).
Read-outs that look alike come from different tables or passages of the source.

Experiments:
Dissolution rate = assay type: physicochemical; conditions: compared to the racemic pantoprazole magnesium dihydrate
Source text: (§1) This absorption of water is reversible, so that it is difficult to adjust an exact water content.

[1] = Hygroscopicity / absorption of water; assay type: physicochemical
Protocol: as §1
Drying is carried out in a vacuum drying cabinet at <50 mbar and 40-45° C. [It is also possible to dispense with drying and to use the moist product (having an MIBK content of 10-20%) directly for step B]. The white-beige crystalline product obtained after drying is hygroscopic. The water content is from 2 to 12%. The absorption and release of water are reversible. Yield: 34 g=90% of theory (based on anhydrous product). Specific rotation: aD^20+=−95 (c=0.5, measured in methanol, sodium salt having a water content of 12%). m.p.: 145-165° C. (decomposition, sodium salt having a water content of 2%); 102-109° C. (decomposition, sodium salt having a water content of 12%).

Solubility at pH 7.4 = assay type: physicochemical; conditions: at pH 7.4, compared to the racemic pantoprazole magnesium dihydrate
Source text: as §1

[2] = Stability of the salt at 70° C. for one week; assay type: physicochemical; conditions: for discolouration and decomposition: identical conditions
Source text: Pantoprazole is the INN (International Nonproprietary Name) for the compound 5-difluoromethoxy-2-[(3,4-dimethoxy-2-pyridinyl)methylsulfinyl]-1H-benzimidazole. The magnesium salt of pantoprazole is the chemical compound magnesium bis[5-[difluoromethoxy]-2-[[3,4-dimethoxy-2-pyridinyl]methyl]sulfinyl]-1H-benzimidazolide]. The magnesium salt of (S)-pantoprazole [hereinafter also referred to as (−)-pantoprazole] and its hydrates in connection with the invention refers to the compound magnesium (−)-bis{[5-(difluoromethoxy)]-2-[(3,4-dimethoxy-2-pyridinyl)methylsulphinyl]-1H-benzimidazolide} including hydrates thereof. Here, particular emphasis is given to hydrates, which, after drying under reduced pressure at 50° C., have a water content of from 4.0 to 6.7% (by weight), in particular from 4.0 to 5.5%. Particular preference is given to the hydrate form which has a water content of from 4.0 to 5.0%, in particular from 4.2 to 4.4%, which corresponds to a dihydrate. The magnesium salt and its hydrates have highly surprising stability properties, making it a particularly suitable candidate for use in solid or oral dosage forms.
as §1

Wettability = assay type: physicochemical; conditions: compared to the racemic pantoprazole magnesium dihydrate
Source text: as §1

[3] = in comparison to pantoprazole itself or to pantoprazole sodium sesquihydrate; WO00/10995; cited from earlier work

SMILES	dissolution rate (Dissolution rate)	hygroscopicity [1]	solubility (Solubility at pH 7.4)	stability ([2]; at 70° C., one week)	discolouration and decomposition ([2]; at 70° C., one week)	stability properties ([2]; compared to the sodium salt of (−)-pantoprazole)	wettability (Wettability)	hygroscopicity ([1]; listed as (−)-Pantoprazole-Na)	stability properties [3]
COc1ccnc(C[S+]([O-])c2nc3cc(OC(F)F)ccc3[n-]2)c1OC.COc1ccnc(C[S+]([O-])c2nc3cc(OC(F)F)ccc3[n-]2)c1OC.O.O.[Mg+2] (single isomer, unassigned; (-)) [(−)-pantoprazole magnesium dihydrate, Magnesium (−)-bis{[5-(difluoromethoxy)]-2-[(3,4-dimethoxy-2-pyridinyl)methylsulphinyl]-1H-benzimidazolide}dihydrate]	considerably higher	non-hygroscopic	better	completely stable	virtually no discolouration or decomposition	considerably improved stability properties	better	–	–
COc1ccnc(C[S+]([O-])c2nc3cc(OC(F)F)ccc3[n-]2)c1OC.[Na+] (single isomer, unassigned; (-)) [(−)-pantoprazole sodium]	–	absorbs water depending on drying conditions and atmospheric humidity	–	–	changes to brown, with formation of considerable amounts of decomposition products	–	–	hygroscopic	–
COc1ccnc(C[S+]([O-])c2nc3cc(OC(F)F)ccc3[n-]2)c1OC.COc1ccnc(C[S+]([O-])c2nc3cc(OC(F)F)ccc3[n-]2)c1OC.[Mg+2] (centres unmarked) [magnesium bis[5-[difluoromethoxy]-2-[[3,4-dimethoxy-2-pyridinyl]methyl]sulfinyl]-1H-benzimidazolide]]	–	–	–	–	–	–	–	–	improved stability properties
